Where two headings read alike, the source gives them in different places.
How the values were obtained:
[1] = biological target: T1, CIB1 and αIIb interaction (CIB1-GST : F-αIIb peptide) (Homo sapiens, UniProt Q99828); assay: FP assay, 1536-well qHTS format (primary and confirmatory screen); format: binding; conditions: for Curve Class (confirmatory screen) / CONFIRMATORY SCREEN Curve Class: qHTS curve class
T1 construct: made in house; host or cells: BL-21 plus RIL cells (E. coli)
T1 sequence (Q99828 1-191): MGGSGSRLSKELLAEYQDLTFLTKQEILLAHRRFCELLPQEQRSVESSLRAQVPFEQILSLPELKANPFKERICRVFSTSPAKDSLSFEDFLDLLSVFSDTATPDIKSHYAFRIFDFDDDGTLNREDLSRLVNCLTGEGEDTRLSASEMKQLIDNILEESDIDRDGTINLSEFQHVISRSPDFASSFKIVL

[2] = biological target: T2, GST-CIB1 : F-scrambled peptide (Homo sapiens, UniProt Q99828); assay: FP scrambled-peptide counter screen, 1536-well format; format: binding; conditions: for Curve Class (counterscreen) / COUNTERSCREEN Curve Class: qHTS curve class
T2 construct: made in house; host or cells: BL-21 plus RIL cells (E. coli)
T2 sequence (Q99828 1-191): T1 sequence (Q99828 1-191)

[3] = confirmatory screen, negative sign = inhibitory curve
[4] = qHTS primary screen hits, Table S2, negative = inhibition
[5] = qHTS primary screen hits, Table S2, negative sign = inhibitory curve, several classes where COUNT > 1
[6] = qHTS primary screen hits, Table S2, read-out: IC50
[7] = counterscreen, negative sign = inhibitory curve
[8] = counterscreen, read-out: IC50 [μM] (counterscreen)
[9] = Table S3, confirmatory screen, a negative sign marks inhibitory curves
[10] = Table S3, confirmatory screen, negative = inhibition
[11] = Table S3, counterscreen, a negative sign marks inhibitory curves
[12] = Table S3, counterscreen, negative = inhibition
[13] = qHTS FP screen hits, Table S2, negative = inhibition
[14] = qHTS FP screen hits, Table S2, read-out: IC50
[15] = Table S3, confirmatory screen, YES/NO call
[16] = Table S3, confirmatory screen, read-out: IC50 [μM] (confirmatory screen)
[17] = Table S3, counterscreen, read-out: IC50 [μM] (counterscreen)
[18] = scrambled-peptide counterscreen

Compound | Efficacy (%) [1, 4] [%] | Curve Class [1, 5] | IC50 [1, 6] [µM] | Curve Class (confirmatory screen) [1, 9] | Efficacy (%) (confirmatory screen) [1, 10] | Curve Class (counterscreen) [2, 11] | Efficacy (%) (counterscreen) [2, 12] | Efficacy (%) [1, 13] [%] | IC50 [1, 14] [µM] | IC50 [2, 17] [µM] | further results
Cc1cc(C)nc(NC(=S)N2CCN(c3ccc4nsnc4c3)CC2)c1.O=C(O)C(F)(F)F [NCGC00244160-01] | -85 | -2.1 | 50.1 | – | – | – | – | – | – | – | Efficacy (%) (confirmatory screen) ([1]; confirmatory screen): -106%; Confirm? (confirmatory screen) ([1]; confirmatory screen, YES/NO): YES; Curve Class (confirmatory screen) [1, 3]: -2.1; Efficacy (%) (counterscreen) ([2]; counterscreen): -93%; Curve Class (counterscreen) [2, 7]: -2.2; IC50 [2, 8]: 39.8 µM
COC(=O)c1cc(Cl)ccc1NS(=O)(=O)C(F)(F)F [NCGC00249937-01] | -64 | -2.2 | 44.7 | 4 | 12 | 4 | -16 | – | – | – | –
O=C(O)C(F)(F)F.O=C1Nc2ccccc2/C1=N/NC(=S)Nc1cccnc1 [NCGC00242647-01] | -32 | -1.4 | 17.8 | – | – | – | – | – | – | – | CONFIRMATORY SCREEN Efficacy (%) ([1]; confirmatory screen): -44%; CONFIRMATORY SCREEN Curve Class ([1]; confirmatory screen): 4; COUNTERSCREEN Efficacy (%) ([2]; counterscreen): -17%; COUNTERSCREEN Curve Class ([2]; counterscreen): 4
O=C(O)C(F)(F)F.O=C1CCCC2=C1C1(CCOCC1)N=C(Nc1nc3ccccc3o1)N2 [NCGC00188584-01] | – | – | – | – | – | – | – | -26 | 15.8 | – | CONFIRMATORY SCREEN Efficacy (%) ([1]; confirmatory screen): 0%; CONFIRMATORY SCREEN Curve Class ([1]; confirmatory screen): 4; COUNTERSCREEN Efficacy (%) ([2]; counterscreen): -16%; COUNTERSCREEN Curve Class ([2]; counterscreen): 4
O=C(O)C(F)(F)F.O=C1CCCC2=C1C(c1n[nH]cc1Cl)NC(Nc1nc3ccccc3o1)=N2 (stereo not drawn) [NCGC00238624-04] | – | – | – | -1.2 | -34 | -1.2 | -54 | – | – | 35.5 | Confirm? (confirmatory screen) [1, 15]: YES; IC50 [1, 16]: 25.1 µM
CC(C)c1nc(Nc2nc3ccccc3o2)nc2c1CCCC2.O=C(O)C(F)(F)F [NCGC00188040-01] | -19 | – | 6.3 | 4 | -29 | -2.4 | -36 | – | – | 22.4 | Curve Class ([1]; qHTS primary screen hits, Table S2, negative sign = inhibitory curve): -1.4; Confirm? (counterscreen) ([2]; Table S3, counterscreen, YES/NO call): YES
O=C(O)C(F)(F)F.O=C1Nc2ccccc2/C1=N/NC(=S)Nc1ccc(O)cc1 [NCGC00229525-01] | – | – | – | -1.4 | -32 | -1.2 | -61 | -42 | 8.9 | 6.3 | Confirm? (confirmatory screen) [1, 15]: YES; IC50 [1, 16]: 11.2 µM; Curve Class ([1]; qHTS FP screen hits, Table S2, one class per curve where COUNT > 1, negative sign = inhibitory curve): -1.2
CCOC(=O)C1CCN(C(=O)C(C)(C)NC(=O)Nc2ccc(C#N)cc2)CC1.O=C(O)C(F)(F)F [NCGC00242565-01] | – | – | – | – | – | – | – | -22 | 2.2 | – | Efficacy (%) (confirmatory screen) ([1]; confirmatory screen): -28%; Confirm? (confirmatory screen) ([1]; confirmatory screen, YES/NO): YES; Curve Class (confirmatory screen) [1, 3]: -1.4; IC50 ([1]; confirmatory screen, read-out: IC50 [μM] (confirmatory screen)): 7.9 µM; Efficacy (%) (counterscreen) ([2]; counterscreen): -30%; Curve Class (counterscreen) [2, 7]: -1.4; IC50 [2, 8]: 15.8 µM
O=c1oc2ccccc2c(O)c1C(CC(O)c1ccc(-c2ccc(Br)cc2)cc1)c1ccccc1 (stereo not drawn) [NCGC00163939-02] | -58 | -2.2 | 79.4 | – | – | – | – | – | – | – | CONFIRMATORY SCREEN Confirm? ([1]; confirmatory screen, YES/NO call): YES; CONFIRMATORY SCREEN Curve Class [1, 3]: -1.2; CONFIRMATORY SCREEN Efficacy (%) ([1]; confirmatory screen, negative = inhibition): -37%; IC50 ([1]; confirmatory screen, read-out: CONFIRMATORY SCREEN IC50): 12.6 µM; COUNTERSCREEN Efficacy (%) [2, 18]: 109%; COUNTERSCREEN Confirm? ([2]; scrambled-peptide counterscreen, YES/NO call): YES; COUNTERSCREEN Curve Class [2, 18]: 3; IC50 ([2]; scrambled-peptide counterscreen, read-out: COUNTERSCREEN IC50): 89.1 µM
